Results taken from paper PMC9225715, “Development of PD3 and PD3-B for PDEδ inhibition to modulate KRAS activity” (Journal of Enzyme Inhibition and Medicinal Chemistry, 2022).
Read-outs that look alike come from different tables or passages of the source.

Assays:
PANC-1 cells = experiment: Immunofluorescence staining of RAS localisation; type: cell-based, human; settings: 18 h, anti-pan RAS antibody, PD3 10 µM, deltarasin 2, 5, 10 µM
Text: Finally, we investigated whether PD3 changes KRAS localisation by inhibiting the interaction of KRAS with PDEδ in human pancreatic cancer cells. PDEδ binds the farnesylated RAS proteins and stabilises them[19]. Therefore, PDEδ activity leads to the accumulation of RAS at the plasma membrane (PM); conversely, downmodulation of PDEδ enhances RAS diffusion in the cytoplasm. To confirm the effect of PD3 on the relocalization of RAS, we carried out immunofluorescence staining of PANC-1 cells with an anti-RAS antibody (Figure 6). […] Conversely, in the DMSO-treated control group, RAS was mainly localised in the PM of PANC-1 cells. […] It is supposed that PD3 can induce changes in RAS localisation from the plasma membrane by interrupting the protein–protein interaction of KRAS-PDEδ.
Figure 6. Immunofluorescence of PANC-1 cells with an anti-Pan-RAS antibody (red). DMSO was used as a negative control, and deltarasin was used as a positive control. Ex: 633 nm, Em: ≥638 nm. The scale bar represents 20 µm.
PANC-1 cells were seeded with cover slip in a 6-well cell culture plate (SPL life Science, Gyeonggi-do, Republic of Korea) and incubated for 24 h under 37 °C and 5% CO2 prior to the experiment. […] The fluorescence images were detected by confocal microscope (TCS-SP8 confocal laser scanning microscope, Leica, Germany). Fluorescence signal was obtained by excitation at 633 nm and emission at ≥638 nm.

PDEδ = biological target: T1, PDEδ (Homo sapiens, UniProt O43924); experiment: Fluorescence polarisation (FP)-based binding assay
T1 construct: made in house; host or cells: E. coli BL21(DE3)
Protocol: To evaluate the binding affinities of PDs to PDEδ, we also carried out a fluorescence polarisation (FP)-based binding assay after incubation of PDs with PDEδ. […] In the presence of 0.5 µM PD compounds, the polarisation value (mP value) increased following treatment with purified PDEδ in a dose-dependent manner until treatment with excess PDEδ induced saturation of binding. Among the tested compounds, 8 compounds were selected for further evaluation and SAR analysis. The binding curves for the selected 8 compounds are shown with their Kd values in Supplemental Figure S3.
Figure 3. Binding affinities of PDs measured by fluorescence polarisation. (A) Representative binding curve of PDs (PD3) titrated with PDEδ. The FP value was measured in PBS buffer (pH 7.2) containing 8 concentrations (0, 0.5, 1, 2, 4, 8, 16 and 32 μM) of PDEδ mixed with 0.5 μM PDs. Ex: 440 nm, Em: 526 nm; (B) Kd value and half-life of each compound; (C, D) Kinetic trace of PD3 and PD7 in the competition assay. PD3 was shown as a compound with the longest retention time (slow dissociation), whereas PD7 was shown as a compound with the shortest retention time (fast dissociation). The half-life was obtained by a competition binding assay using excess deltarasin. The optimal concentration of PDEδ for the competition assay was determined using the Kd value and PD concentration (0.5 μM) for making more than 68% of the binding complex. Ex: 430 nm, Em: 520 nm. TEXT PRINTED IN THE PICTURE: (A) PD3: Best-fit values Bmax: 261.7; Best-fit values Kd: 0.4991; Std. Error Bmax: 17.98; Std. […] Error Bmax 17.98 (last digit 8 or 6) and Std. Error Kd 0.1956 (5 and 6 not certain) / Panels C and D: k and half-life are printed without a label of their own; assigned to PD3 and PD7 from the panel legends (PDEδ+PD3+Del, PDEδ+PD7+Del)
PDEδ was diluted to make a series of two-fold dilutions with a starting concentration of 32 µM. The diluted solution was mixed with PBS buffer [137 mM NaCl, 2.7 mM KCl, 10 mM Na2HPO4, 2 mM KH2PO4 (pH 7.2)] and then the mixture was loaded on a 96 well black plate (SPL life Science, Gyeonggi-do, Republic of Korea). Compounds were transferred to the wells of assay plate and the final concentration of compounds was fixed to 0.5 µM. After the addition of the compound, the assay plates were incubated for 2 h at 4 °C. FP values were detected by SpectraMax M5 microplate reader (Molecular Devices, San Jose, CA) at the maximum absorption and emission wavelengths of PD compounds in assay buffer. Kd values were determined by previously reported method.

T1 sequence (O43924 whole entry): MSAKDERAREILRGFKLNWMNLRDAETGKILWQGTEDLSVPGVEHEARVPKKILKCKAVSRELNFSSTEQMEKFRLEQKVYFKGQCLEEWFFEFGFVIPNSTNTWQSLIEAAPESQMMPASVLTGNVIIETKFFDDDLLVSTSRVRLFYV

`Cc1ccc(-c2nc3ccccc3c3cc4ccccn4c23)cc1` [PD3, 6-(p-tolyl)indolizino[3,2-c]quinoline] was tested, and the “RAS localisation at the plasma membrane (PM)” value (PANC-1 cells) was “red fluorescence was effectively reduced at the PM”, the Kd (PDEδ; 0.5 µM PD titrated with PDEδ, PBS pH 7.2, mean ± SD of three independent experiments, read-out: Kd value) was 491 ± 12 nM and the Kd (PDEδ; representative binding curve, Figure 3(A) inset, read-out: Best-fit values Kd) was 499 nM.
